According to ChEMBL document CHEMBL1909294, “Translating clinical findings into knowledge in drug safety evaluation--drug induced liver injury prediction system (DILIps)” (PLoS Comput Biol, 2011):

What was measured:
Hepatotoxicity [1] = tested on: Hepatotoxicity;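 on HepSE bilirubinemia: bilirubinemia hepatic side effect score drawn from the DILIps training data, a prediction system for drug-induced liver injury; call rule not given here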;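 on HepSE cholecystitis: Cholecystitis-related hepatic side effect score drawn from the DILIps (drug-induced liver injury prediction) training data set; call rule not given here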;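 on HepSE cholelithiasis: hepatic side effect score for cholelithiasis, drawn from the DILIps training data for predicting drug-induced liver injury; call rule not given here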;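 on HepSE cirrhosis: cirrhosis hepatic side effect score taken from the DILIps (drug-induced liver injury prediction) training set; call rule not given here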;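 on HepSE elevated liver function tests: hepatic side effect score for raised liver function tests, as recorded in the DILIps training set used for predicting drug-induced liver injury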; on HepSE hepatic failure: call rule not given here;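 on HepSE hepatomegaly: hepatic side effect score for hepatomegaly, taken from the training set of the DILIps drug-induced liver injury prediction system; call rule not given here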
Hepatotoxicity [2] = tested on: Hepatotoxicity; remark: listed apart in the source;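 on HepSE bilirubinemia: bilirubinemia hepatic side effect score drawn from the DILIps training data, a prediction system for drug-induced liver injury; call rule not given here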;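 on HepSE cholecystitis: Cholecystitis-related hepatic side effect score drawn from the DILIps (drug-induced liver injury prediction) training data set; call rule not given here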;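 on HepSE cholelithiasis: hepatic side effect score for cholelithiasis, drawn from the DILIps training data for predicting drug-induced liver injury; call rule not given here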;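 on HepSE cirrhosis: cirrhosis hepatic side effect score taken from the DILIps (drug-induced liver injury prediction) training set; call rule not given here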;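 on HepSE elevated liver function tests: hepatic side effect score for raised liver function tests, as recorded in the DILIps training set used for predicting drug-induced liver injury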; on HepSE hepatic failure: call rule not given here;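 on HepSE hepatomegaly: hepatic side effect score for hepatomegaly, taken from the training set of the DILIps drug-induced liver injury prediction system; call rule not given here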
Hepatotoxicity [3] = tested on: Hepatotoxicity; remark: listed apart in the source;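 on HepSE bilirubinemia: bilirubinemia hepatic side effect score drawn from the DILIps training data, a prediction system for drug-induced liver injury; call rule not given here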;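 on HepSE cholecystitis: Cholecystitis-related hepatic side effect score drawn from the DILIps (drug-induced liver injury prediction) training data set; call rule not given here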;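 on HepSE cholelithiasis: hepatic side effect score for cholelithiasis, drawn from the DILIps training data for predicting drug-induced liver injury; call rule not given here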;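 on HepSE cirrhosis: cirrhosis hepatic side effect score taken from the DILIps (drug-induced liver injury prediction) training set; call rule not given here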;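 on HepSE elevated liver function tests: hepatic side effect score for raised liver function tests, as recorded in the DILIps training set used for predicting drug-induced liver injury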; on HepSE hepatic failure: call rule not given here
Hepatotoxicity [4] = tested on: Hepatotoxicity; remark: listed apart in the source;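 on HepSE bilirubinemia: bilirubinemia hepatic side effect score drawn from the DILIps training data, a prediction system for drug-induced liver injury; call rule not given here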;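 on HepSE cholecystitis: Cholecystitis-related hepatic side effect score drawn from the DILIps (drug-induced liver injury prediction) training data set; call rule not given here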;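 on HepSE cholelithiasis: hepatic side effect score for cholelithiasis, drawn from the DILIps training data for predicting drug-induced liver injury; call rule not given here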;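 on HepSE cirrhosis: cirrhosis hepatic side effect score taken from the DILIps (drug-induced liver injury prediction) training set; call rule not given here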;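 on HepSE elevated liver function tests: hepatic side effect score for raised liver function tests, as recorded in the DILIps training set used for predicting drug-induced liver injury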; on HepSE hepatic failure: call rule not given here
Hepatotoxicity [5] = tested on: Hepatotoxicity; remark: listed apart in the source; on HepSE hepatic failure: call rule not given here
Hepatotoxicity [6] = tested on: Hepatotoxicity; remark: listed apart in the source; on HepSE hepatic failure: call rule not given here
Hepatotoxicity [7] = tested on: Hepatotoxicity; remark: listed apart in the source
Hepatotoxicity [8] = tested on: Hepatotoxicity; remark: listed apart in the source
Hepatotoxicity [9] = tested on: Hepatotoxicity; remark: listed apart in the source
Hepatotoxicity [10] = tested on: Hepatotoxicity; remark: listed apart in the source
Hepatotoxicity [11] = tested on: Hepatotoxicity; remark: listed apart in the source
Hepatotoxicity [12] = tested on: Hepatotoxicity; remark: listed apart in the source
Hepatotoxicity [13] = tested on: Hepatotoxicity; remark: listed apart in the source
Hepatotoxicity [14] = tested on: Hepatotoxicity; remark: listed apart in the source

SMILES | HepSE_bilirubinemia (Hepatotoxicity [1]) | HepSE_cholecystitis (Hepatotoxicity [2]) | HepSE_cholelithiasis (Hepatotoxicity [3]) | HepSE_cirrhosis (Hepatotoxicity [4]) | HepSE_elevated liver function tests (Hepatotoxicity [5]) | HepSE_hepatic failure (Hepatotoxicity [6]) | HepSE_hepatic necrosis (Hepatotoxicity [7]) | HepSE_hepatitis (Hepatotoxicity [8]) | HepSE_hepatomegaly (Hepatotoxicity [9]) | HepSE_jaundice (Hepatotoxicity [10]) | HepSE_liver disease (Hepatotoxicity [11]) | HepSE_liver fatty (Hepatotoxicity [12]) | HepSE_liver function tests abnormal (Hepatotoxicity [13]) | HepSE_Combined Scores (Hepatotoxicity [14]) | also measured
N=C(N)NC(=O)c1nc(Cl)c(N)nc1N [AMILORIDE] | 0 | 0 | 0 | 0 | 0 | 0 | 0 | 0 | 0 | 1 | 1 | 0 | 0 | 2 | –
CC(C)[N+](C)(CCOC(=O)C1c2ccccc2Oc2ccccc21)C(C)C [PROPANTHELINE] | 0 | 0 | 0 | 0 | 0 | 0 | 0 | 0 | 0 | 0 | 0 | 0 | 0 | 0 | –
O.O=P(O)(O)C(O)(Cn1ccnc1)P(=O)(O)O [ZOLEDRONIC ACID] | 0 | 0 | 0 | 0 | 0 | 0 | 0 | 0 | 0 | 0 | 0 | 0 | 1 | 1 | –
N[C@@H](Cc1c[nH]c2ccccc12)C(=O)O [TRYPTOPHAN] | 0 | 0 | 0 | 0 | 0 | 0 | 0 | 0 | 0 | 0 | 0 | 0 | 0 | 0 | –
O=C1CCC(N2C(=O)c3ccccc3C2=O)C(=O)N1 (configuration not stated) [THALIDOMIDE] | 1 | 0 | 0 | 0 | 0 | 0 | 0 | 1 | 1 | 1 | 0 | 0 | 0 | 4 | –
CNC1(c2ccccc2Cl)CCCCC1=O (configuration not stated) [KETAMINE] | 0 | 0 | 0 | 0 | 0 | 0 | 0 | 0 | 0 | 0 | 0 | 0 | 0 | 0 | –
O=C(OOC(=O)c1ccccc1)c1ccccc1 [BENZOYL PEROXIDE] | 0 | 0 | 0 | 0 | 0 | 0 | 0 | 0 | 0 | 0 | 0 | 0 | 0 | 0 | –
CCN1CC(CCN2CCOCC2)C(c2ccccc2)(c2ccccc2)C1=O (configuration not stated) [DOXAPRAM] | 0 | 0 | 0 | 0 | 0 | 0 | 0 | 0 | 0 | 0 | 0 | 0 | 0 | 0 | –
COCCCOc1cc(C[C@@H](C[C@H](N)[C@@H](O)C[C@H](C(=O)NCC(C)(C)C(N)=O)C(C)C)C(C)C)ccc1OC | 0 | 0 | 0 | 0 | 0 | 0 | 0 | 0 | 0 | 0 | 0 | 0 | 0 | 0 | –
CCOC(=O)c1ncn2c1CN(C)C(=O)c1cc(F)ccc1-2 [FLUMAZENIL] | 0 | 0 | 0 | 0 | 0 | 0 | 0 | 0 | 0 | 0 | 0 | 0 | 0 | 0 | –
CN1C[C@H](C(=O)N[C@]2(C)O[C@@]3(O)[C@@H]4CCCN4C(=O)[C@H](Cc4ccccc4)N3C2=O)C[C@@H]2c3cccc4[nH]cc(c34)C[C@H]21 [DIHYDROERGOTAMINE] | 0 | 0 | 0 | 0 | 0 | 0 | 0 | 0 | 0 | 0 | 0 | 0 | 0 | 0 | –
CCN(C(C)=O)c1cccc(-c2ccnc3c(C#N)cnn23)c1 [ZALEPLON] | 1 | 0 | 1 | 0 | 0 | 0 | 0 | 0 | 0 | 0 | 0 | 0 | 1 | 3 | –
COc1cccc(C2(O)CCCCC2CN(C)C)c1 (configuration not stated) [TRAMADOL] | 0 | 1 | 1 | 0 | 0 | 1 | 0 | 1 | 0 | 0 | 0 | 0 | 1 | 5 | –
Clc1ccc2c(c1)C(c1ccccc1)=NCc1nncn1-2 [ESTAZOLAM] | 0 | 0 | 0 | 0 | 0 | 0 | 0 | 0 | 0 | 0 | 0 | 0 | 0 | 0 | –
OC(CCN1CCCCC1)(c1ccccc1)C1CCCCC1 (configuration not stated) [TRIHEXYPHENIDYL] | – | – | – | – | – | – | – | – | – | – | – | – | – | – | HepSE_bilirubinemia (Hepatotoxicity [1]; Liver): 0; HepSE_cholecystitis (Hepatotoxicity [2]; Liver): 0; HepSE_cholelithiasis (Hepatotoxicity [3]; Liver): 0; HepSE_cirrhosis (Hepatotoxicity [4]; Liver): 0; HepSE_elevated liver function tests (Hepatotoxicity [5]; Liver): 0; HepSE_hepatic failure (Hepatotoxicity [6]; Liver): 0; HepSE_hepatic necrosis (Hepatotoxicity [7]; Liver): 0; HepSE_hepatitis (Hepatotoxicity [8]; Liver): 0; HepSE_hepatomegaly (Hepatotoxicity [9]; Liver): 0; HepSE_jaundice (Hepatotoxicity [10]; Liver): 0; HepSE_liver disease (Hepatotoxicity [11]; Liver): 0; HepSE_liver fatty (Hepatotoxicity [12]; Liver): 0; HepSE_liver function tests abnormal (Hepatotoxicity [13]; Liver): 0; HepSE_Combined Scores (Hepatotoxicity [14]; Liver): 0
CC(C)[C@H](N)C(=O)OCCOCn1cnc2c(=O)[nH]c(N)nc21 [VALACYCLOVIR] | 0 | 0 | 0 | 0 | 0 | 0 | 0 | 1 | 0 | 0 | 0 | 0 | 0 | 1 | –
C#Cc1cccc(Nc2ncnc3cc(OCCOC)c(OCCOC)cc23)c1 [ERLOTINIB] | 0 | 0 | 0 | 0 | 0 | 1 | 0 | 0 | 0 | 0 | 1 | 0 | 0 | 2 | –
COc1ccc2cc(CCC(C)=O)ccc2c1 [NABUMETONE] | 0 | 0 | 0 | 0 | 1 | 1 | 0 | 0 | 0 | 1 | 0 | 0 | 0 | 3 | –
